Earlier results as cited in US20150079169A1 (POZEN INC., priority 2011, published 2015).
Values belong to the compound of their own block, whether it stands above or below them.

Key:
[1] = for major cardiovascular events (ischaemic stroke, MI, or vascular death), average rate per year: 19,185 people with history of MI, stroke, or peripheral arterial disease, clopidogrel 75 mg daily versus aspirin 325 mg daily
[2] = clopidogrel therapy
[3] = oral dose of 14C-labeled clopidogrel in humans, five days after dosing
[4] = repeated oral doses of 75 mg clopidogrel (base)

Structure (SMILES): CC(=O)Oc1ccccc1C(=O)O [aspirin]
major cardiovascular events (ischaemic stroke, MI, or vascular death), average rate per year [1]: 6%
reduction of incidence of non-fatal myocardial infarction, non-fatal stroke and vascular death ([1]; people with known vascular disease): about a quarter

effect of administration with meals on bioavailability of clopidogrel (assessed by pharmacokinetics of the main circulating metabolite): did not significantly modify
Structure (SMILES): COC(=O)[C@H](c1ccccc1Cl)N1CCc2sccc2C1 [clopidogrel bisulfate]

Absorption (based on urinary excretion of clopidogrel-related metabolites): at least 50%
elimination half-life of the active metabolite (in vivo): about eight hours
time of peak plasma levels (in vivo): 30 to 60 min
excreted in the feces [3]: approximately 46%
excreted in the urine [3]: approximately 50%
plasma concentrations of the parent compound (below the quantification limit) (repeated 75 mg oral doses, beyond two hours after dosing): < 258 pg/mL
peak plasma levels of the main circulating metabolite [4]: approx. 3 mg/L
time of peak plasma levels of the main circulating metabolite [4]: approximately one hour after dosing
reversible binding in vitro to human plasma proteins (human plasma proteins): 98%
Structure (SMILES): COC(=O)[C@H](c1ccccc1Cl)N1CCc2sccc2C1 [clopidogrel]
incidence of gastrointestinal hemorrhage [2]: 2.0 % annually
RRR of major cardiovascular events versus aspirin ([1]; 95% CI 0.30% to 16.5%, P=0.04): 8.7%
OR for cardiovascular events compared with aspirin ([1]; 95% CI 0.84 to 0.98): 0.91
major cardiovascular events (ischaemic stroke, MI, or vascular death), average rate per year [1]: 5%
greater risk for major adverse cardiovascular events in patients with CYP2C19 variants ([1]; patients with variants in cytochrome P-450 2C19): 3.58 fold

Structure (SMILES): O=C(O)[C@H](c1ccccc1Cl)N1CCc2sccc2C1 [main circulating metabolite]
reversible binding in vitro to human plasma proteins (human plasma proteins): 94%
